Entries after “also recorded” stand apart in the source; their conditions may differ.
Experiments:
MES-SA = assay: Tumor cell growth inhibition, MTS assay, MES-SA; format: cell-based; conditions: Homo sapiens, 72 hours incubation
Procedure: (§1) The in vitro activity of the compounds was assessed in a selected set of human cancer cell lines.
(§2) MES-SA, a model of uterine sarcoma, is sensitive to a number of chemotherapeutic agents, including Doxorubicin, Dactinomycin, Mitomycin C, paclitaxel and Bleomycin, but resistant to Vinblastine and Cisplatin. MES-SA/DX5 was established in the presence of increasing concentrations of Doxorubicin. […] Both MES-SA and MES-SA/Dx5 were purchased from ATCC (ATCC CRL-1976 and ATCC CRL-1977, respectively).
(§3) All experiments were performed on exponentially growing cell culture. Cell densities were 2.5×10^4 cells/ml in all experiment except special.

HL-60 = assay: Tumor cell growth inhibition, MTS assay, HL-60; format: cell-based; conditions: Homo sapiens, 72 hours incubation
Procedure: (§4) The in vitro activity of the compounds was assessed in a selected set of human cancer cell lines. Three pairs of tumor cell lines (non-resistant/resistant) were used to identify novel potent antitumor compounds which are capable of overcoming multi-drug resistance.
(§5) HL-60, a model of myeloid leukemia, was obtained from ATCC (ATCC CCL-240); and HL60/TX1000 was isolated in vitro by subculturing HL-60 in progressively higher concentration of paclitaxel. HL-60/TX1000 cells over-express mdr-1 mRNA and p-glycoprotein (PCP), as determined by western blot and immunofluorescence labeling with antiPGP antibodies. The cells are cross-resistant to paclitaxel, Vincristine, Adriamycin, Etoposide and Doxorubicin.
as §3

Bowes = assay: Tumor cell growth inhibition, MTS assay, Bowes; format: cell-based; conditions: Homo sapiens, 72 hours incubation
Procedure: as §4
(§6) Bowes is a melanoma cell line; and Bowes/OV2 is a Vincristine resistant Bowes melanoma cell line.
as §3

[1] = test system: MDR cell lines (MES-SA/DX5, HL-60/TX1000, Bowes/OV2); assay: Tumor cell growth inhibition, summary over MDR cell lines; format: cell-based, human; conditions: for IC50: Homo sapiens, read-out: IC50 against the MDR cell lines
Procedure: as §4, §5, §2, §6, §3

CEM (T-cell leukemia) = assay: cells; format: cell-based; conditions: Homo sapiens, 72 h, read-out: In vitro Cytotoxicity IC50, CEM
Procedure: (§7) All experiments were performed on exponentially growing cell culture.

39SK normal fibroblast = assay: In vitro cytotoxicity, MTS assay, 39SK; format: cell-based; conditions: Human normal fibroblast, 72 hours
Procedure: as §7

MES-SA/DX5 = assay: Tumor cell growth inhibition, MTS assay, MES-SA/DX5; format: cell-based, human; conditions: protocol of Example 15, Table 2
Procedure: as §1, §2, §3

[2] = test system: normal cancer cell lines (MES-SA, HL-60, Bowes); assay: Tumor cell growth inhibition, summary over normal cancer cell lines; format: cell-based; conditions: Homo sapiens, read-out: IC50 against normal cancer cell lines
Procedure: as §4, §5, §2, §6, §3

[3] = test system: multi-drug resistant human uterine sarcoma MES-SA/DX5 tumors; assay: MES-SA/DX5 tumors in nude mice; format: in vivo; conditions: 15 mg/kg intravenously, 3 times a week for 3 weeks
Procedure: A supplemented media was prepared from 50% DMEM/Dulbecco Modified Eagle Medium (High Glucose), 50% RPMI 1640, 10% FBS/Fetal Bovine Serum (Hybridoma Tested; Sterile Filtered), 1% L-Glutamine, 1% Penicillin-Streptomycin, 1% MEM Sodium Pyruvate and 1% MEM Non-Essential Amino Acids. FBS was obtained from Sigma Chemical Co. and other ingredients were obtained from Invitrogen Life Technologies, USA). The supplemental media was warmed to 37° C. and 50 ml of media was added to a 175 cm^2 tissue culture flask.
The cells used in the assay were multi-drug resistant MES-SA/DX-5 Human Uterine Sarcoma cells from the American Type Culture Collection. 1 vial of MES-SA/DX-5 cells from the liquid nitrogen frozen cell stock was removed. The frozen vial of cells was immediately placed into a 37° C. water bath and gently swirled until thawed. The freeze-vial was wiped with 70% ethanol and cells were immediately pipetted into the 175 cm^2 tissue culture flask containing supplemented media. […]
The flask was washed with 10 ml of sterile room temperature phosphate buffered saline (PBS). […] The supernatant was aspirated and the cell pellet was resuspended in 10 ml of supplemented media and the cells were counted. […]
The above procedure for trypsinizing and centrifuging the cells were followed. The supernatant was aspirated and the cell pellet was resuspended in 10 ml of sterile PBS and the cells were counted. […]

SMILES | IC50 (MES-SA) [µM] | IC50 (HL-60) [µM] | IC50 (Bowes) [µM] | IC50 compared with Compound (1), same multi-drug resistant cell lines [1] | IC50 [1] [nM] | IC50 (CEM (T-cell leukemia)) [nM] | other results
CN(NC(=O)CC(=O)NN(C)C(=S)c1ccccc1)C(=S)c1ccccc1 [Compound (1)] |  |  |  |  |  |  | IC50 (39SK normal fibroblast): > 10000 nM
CC(C(=O)NN1Cc2ccccc2C1=S)C(=O)NN1Cc2ccccc2C1=S [Compound (13)] |  |  |  |  |  |  | IC50 (MES-SA/DX5): 0.05 µM
CCN(NC(=O)C(C)C(=O)NN(CC)C(=S)c1ccccc1)C(=S)c1ccccc1 [Compound (16)] |  |  |  |  |  |  | IC50 (MES-SA/DX5; Homo sapiens, MES-SA/Dx5): 0.05 µM; toxicity such as body weight suppression and behavior changes [3]: without any obvious toxicity; tumor growth / tumor size of MES-SA/DX5 compared with vehicle ([3]; FIG. 2): significantly reduced; also recorded: significantly inhibits the tumor growth

Continued, in another order:

IC50 (MES-SA) [µM] | IC50 (HL-60) [µM] | IC50 (Bowes) [µM] | IC50 compared with Compound (1), same multi-drug resistant cell lines [1] | IC50 [1] [nM] | SMILES | IC50 (CEM (T-cell leukemia)) [nM] | other results
0.004 | 0.002 | 0.002 | two to three orders of magnitude larger | 5000 | CC[C@]1(O)C[C@H]2CN(CCc3c([nH]c4ccccc34)[C@@](C(=O)OC)(c3cc4c(cc3OC)N(C=O)[C@H]3[C@@](O)(C(=O)OC)[C@H](OC(C)=O)[C@]5(CC)C=CCN6CC[C@]43[C@@H]65)C2)C1 [Vincristine] | 5 | 
0.005 | 0.002 | 0.005 | two to three orders of magnitude larger | 5000 | CC(=O)O[C@H]1C(=O)[C@@]2(C)[C@H]([C@H](OC(=O)c3ccccc3)[C@]3(O)C[C@H](OC(=O)[C@H](O)[C@@H](NC(=O)c4ccccc4)c4ccccc4)C(C)=C1C3(C)C)[C@]1(OC(C)=O)CO[C@@H]1C[C@@H]2O [Paclitaxel] | 10 | IC50 [2]: 2 to 5 nM

Source: patent US7763658B2, “Treatment for cancers” (Synta Pharmaceuticals Corp., priority 2003, dated 2010)
